Results reported in US10450356B2, “PRAME derived peptides and immunogenic compositions comprising these” (Academisch Ziekenhuis Leiden H.O.D.N. LUMC, priority 2007, dated 2019).

Molecular target: T1, 20S proteasomes purified from a B-LCL cell line (immunoproteasomes) (Homo sapiens, UniProt P28062+P28065+P40306)
T1 construct: 20S proteasomes were purified from a B-LCL cell line; endogenous in cells; purified after Groettrup et al. 1995
Test: In vitro proteasome mediated cleavage analysis
Type: biochemical
Parameters: key to Intact in fragment / Intact Fragment: intact epitope found in digestion fragments: (+), present; (-), not present; key to Processing C-term: generation by proteasome-mediated digestion of fragments containing the correct C-terminus: (++) fragments present for >5%; (+) present for <5%; (-) no fragments containing the C-term. were found
Settings: for Processing C-term: generation by proteasome-mediated digestion of fragments containing the correct C-terminus: 1 h digestion; for Intact Fragment: intact epitope found in digestion fragments: after 1 h digestion; for C-term. generation: generation of C-terminus of the epitope after 1 h digestion; for Intact in fragment: intact epitope found in digestion fragments after 1 h digestion
Protocol: 20S proteasomes were purified from a B-LCL cell line as described by Groettrup et al. (J. Biol. Chem. 270:23808-23815; 1995). This cell type is known to contain immunoproteasomes. High LMP2 and 7 content was confirmed by 2-D immuno-blotting. To assess kinetics, digestions were performed with different incubation periods. Peptides (27 mers, 20 μg) were incubated with 1 μg of purified proteasome at 37° C. for 1 h, 4 h and 24 h in 300 μl proteasome digestion buffer as described (Eggers, et al. 1995. J. Exp. Med. 182:1865). Trifluoroacetic acid was added to stop the digestion and samples were stored at −20° C. before mass spectrometric analysis.
Electrospray ionization mass spectrometry was performed on a hybrid quadrupole time-of-flight mass spectrometer, a Q-TOF (Micromass), equipped with an on-line nanoelectrospray interface with an approximate flow rate of 250 nL/min. Injections were done with a dedicated micro/nano HPLC autosampler, the FAMOS (LC Packings). Digestion solutions were diluted five times in water-methanol-acetic acid (95:5:1, v/v/v), and trapped on the precolumn (MCA-300-05-C8; LC Packings) in water-methanol-acetic acid (95:5:1, v/v/v). Washing of the precolumn was done for 3 min to remove the buffers present in the digests. Subsequently, the trapped analytes were eluted with a steep gradient going from 70% B to 90% B in 10 min, with a flow of 250 nl/min (A: water-methanol-acetic acid (95:5:1, v/v/v); B: water-methanol-acetic acid (10:90:1, v/v/v)). This low elution rate allows for a few additional MS/MS experiments if necessary during the same elution. Mass spectra were recorded from mass 50-2000 Da every second. The resolution allows direct determination of the monoisotopic mass, also from multiple charged ions. The peaks in the mass spectrum were searched in the digested precursor peptide using the Biolynx/proteins software (Micromass). The intensity of the peaks in the mass spectra was used to establish the relative amounts of peptides generated by proteasome digestion.

SMILES: CC(C)C[C@H](NC(=O)[C@H](CCC(=O)O)NC(=O)[C@H](CC(=O)O)NC(=O)[C@H](CS)NC(=O)[C@H](C)NC(=O)CNC(=O)[C@H](CCC(=O)O)NC(=O)[C@H](CCCCN)NC(=O)[C@H](CC(C)C)NC(=O)[C@@H](N)Cc1ccccc1)C(=O)O
- Processing C-term: generation by proteasome-mediated digestion of fragments containing the correct C-terminus: -
- Intact Fragment: intact epitope found in digestion fragments: -

SMILES: CC(C)C[C@H](NC(=O)[C@@H](NC(=O)[C@H](Cc1c[nH]cn1)NC(=O)[C@@H](NC(=O)[C@H](CC(C)C)NC(=O)[C@H](CC(N)=O)NC(=O)[C@H](CO)NC(=O)[C@H](CC(C)C)NC(=O)CN)[C@@H](C)O)C(C)C)C(=O)O
- Processing C-term: generation by proteasome-mediated digestion of fragments containing the correct C-terminus: + ((+) present for <5%)
- Intact Fragment: intact epitope found in digestion fragments: -

SMILES: CC[C@H](C)[C@H](NC(=O)[C@@H](N)Cc1ccc(O)cc1)C(=O)N[C@@H](C)C(=O)N[C@@H](CCC(N)=O)C(=O)N[C@@H](Cc1ccccc1)C(=O)N[C@H](C(=O)N[C@@H](CO)C(=O)N[C@@H](CCC(N)=O)C(=O)N[C@@H](Cc1ccccc1)C(=O)N[C@@H](CC(C)C)C(=O)O)[C@@H](C)O
- Processing C-term: generation by proteasome-mediated digestion of fragments containing the correct C-terminus: ++ ((++) fragments present for >5%)
- Intact Fragment: intact epitope found in digestion fragments: +
- C-term. generation: ++ (abundant (++) present for >5%)
- Intact in fragment: +

SMILES: CC(C)C[C@H](NC(=O)[C@H](CCCNC(=N)N)NC(=O)[C@H](C)NC(=O)[C@H](Cc1c[nH]cn1)NC(=O)[C@H](CC(C)C)NC(=O)[C@H](Cc1ccc(O)cc1)NC(=O)[C@H](C)NC(=O)[C@H](CC(C)C)NC(=O)[C@@H](N)CCCNC(=N)N)C(=O)O
- Processing C-term: generation by proteasome-mediated digestion of fragments containing the correct C-terminus: ++ ((++) fragments present for >5%)
- Intact Fragment: intact epitope found in digestion fragments: +
- C-term. generation: ++ (abundant (++) present for >5%)
- Intact in fragment: +

SMILES: CC(C)C[C@H](NC(=O)[C@H](Cc1c[nH]cn1)NC(=O)[C@H](CC(C)C)NC(=O)[C@@H](N)Cc1c[nH]cn1)C(=O)N[C@@H](CCC(=O)O)C(=O)N[C@H](C(=O)N[C@@H](Cc1ccccc1)C(=O)N[C@@H](CCCCN)C(=O)N[C@@H](C)C(=O)O)[C@@H](C)O
- Processing C-term: generation by proteasome-mediated digestion of fragments containing the correct C-terminus: -
- Intact Fragment: intact epitope found in digestion fragments: -

SMILES: CC[C@H](C)[C@H](NC(=O)[C@H](C)NC(=O)[C@H](CC(C)C)NC(=O)[C@H](C)NC(=O)[C@H](CCC(=O)O)NC(=O)[C@H](CC(=O)O)NC(=O)[C@H](CCCCN)NC(=O)[C@H](CC(C)C)NC(=O)[C@H](CC(C)C)NC(=O)[C@@H](N)CO)C(=O)O
- Processing C-term: generation by proteasome-mediated digestion of fragments containing the correct C-terminus: ++ ((++) fragments present for >5%)
- Intact Fragment: intact epitope found in digestion fragments: +
- C-term. generation: ++ (abundant (++) present for >5%)
- Intact in fragment: +

SMILES: CC(C)C[C@H](NC(=O)[C@H](Cc1ccc(O)cc1)NC(=O)[C@H](C)NC(=O)[C@H](CC(C)C)NC(=O)[C@H](CCCNC(=N)N)NC(=O)[C@H](CCC(=O)O)NC(=O)[C@H](CC(C)C)NC(=O)[C@H](Cc1c[nH]cn1)NC(=O)[C@H](CC(C)C)NC(=O)[C@@H](N)[C@@H](C)O)C(=O)O
- Processing C-term: generation by proteasome-mediated digestion of fragments containing the correct C-terminus: -
- Intact Fragment: intact epitope found in digestion fragments: -

SMILES: CC[C@H](C)[C@H](NC(=O)[C@H](Cc1ccc(O)cc1)NC(=O)[C@@H](N)CCCNC(=N)N)C(=O)N[C@@H](CO)C(=O)N[C@@H](CCSC)C(=O)N[C@@H](CO)C(=O)N[C@H](C(=O)N[C@@H](Cc1c[nH]c2ccccc12)C(=O)N[C@H](C(=O)N[C@@H](CO)C(=O)O)[C@@H](C)O)C(C)C
- Processing C-term: generation by proteasome-mediated digestion of fragments containing the correct C-terminus: -
- Intact Fragment: intact epitope found in digestion fragments: -

SMILES: CSCC[C@H](NC(=O)[C@@H](NC(=O)CNC(=O)[C@H](CO)NC(=O)[C@H](CC(C)C)NC(=O)[C@@H](N)CO)C(C)C)C(=O)N[C@@H](CC(C)C)C(=O)N[C@H](C(=O)N[C@@H](CC(=O)O)C(=O)N[C@H](C(=O)O)C(C)C)[C@@H](C)O
- Processing C-term: generation by proteasome-mediated digestion of fragments containing the correct C-terminus: -
- Intact Fragment: intact epitope found in digestion fragments: -
